The values below come from PubChem BioAssay (NCI).

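Cultured in 96-well plates, cells were exposed to test compound for 48 hours across five concentrations. GI50: concentration for 50% inhibition of growth. The concentration for full growth arrest is given as TGI.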 Bounds are passed on as bounds.

Among the test systems are U251 CNS; OVCAR-3 ovarian; TK-10 renal; ACHN renal; SR leukemia; MCF7 breast; CAKI-1 renal; UACC-62 melanoma.
Common to all, as to test: inhibition of tumour cell growth, NCI panel, 48 h

Consider `Cn1cc(-c2cc(-c3cn(C)c4ccc(Cl)cc34)[nH]n2)c2cc(Cl)ccc21`, for which the GI50 in the assay with U251 CNS is 3.37 µM; in the assay with OVCAR-3 ovarian, 4.41 µM; in the assay with TK-10 renal, 5.16 µM; in the assay on ACHN renal it was 3.23 µM; with SR leukemia it was 2.36 µM; in the assay with MCF7 breast, 2.64 µM. Also, the GI50 with CAKI-1 renal is 1.7 µM; with UACC-62 melanoma, 1.63 µM. Further, the TGI in the assay on U251 CNS amounted to 12.9 µM; in the assay on OVCAR-3 ovarian, 40.6 µM; with TK-10 renal it was 23.7 µM; with ACHN renal, 12.8 µM; in the assay on SR leukemia, 7.71 µM; in the assay on MCF7 breast, 6.89 µM. The TGI in the assay on CAKI-1 renal stood at 6.05 µM; with UACC-62 melanoma, 3.35 µM.
For the compound `COc1ccc2c(c1)CN([C@@H](C)[C@H]1CC[C@H]3[C@@H]4CC[C@H]5C[C@@H](O)CC[C@]5(C)[C@H]4CC[C@]13C)CO2`, the TGI amounted to 3.35 µM with U251 CNS; 18 µM in the assay with OVCAR-3 ovarian; 8.32 µM with TK-10 renal; 11.2 µM in the assay on ACHN renal; 2.61 µM in the assay with SR leukemia; 11.8 µM in the assay with MCF7 breast. Besides, the results for the TGI with CAKI-1 renal and in the assay on UACC-62 melanoma were 13.8 µM and 3.88 µM, respectively.
In the case of `CC(NC(=O)Cc1ccc(C(F)(F)P(=O)(OCc2ccc([N+](=O)[O-])o2)N(C)CCCCCl)cc1)c1ccc(OCC2CCCCC2)c(C(N)=O)c1` (configuration not stated), the GI50 is 3.33 µM in the assay on U251 CNS; 2.31 µM in the assay on OVCAR-3 ovarian; 8.01 µM with TK-10 renal; 8.77 µM in the assay with ACHN renal; 1.76 µM with SR leukemia; 6.53 µM in the assay with MCF7 breast. In addition, the GI50 was 15.8 µM in the assay on CAKI-1 renal and 4.97 µM in the assay with UACC-62 melanoma. For the same compound, the TGI amounted to 10.9 µM in the assay on U251 CNS; 9.82 µM with OVCAR-3 ovarian; 22.2 µM in the assay on TK-10 renal; 39.3 µM with ACHN renal; 5.03 µM in the assay with SR leukemia; 41.4 µM in the assay on MCF7 breast. Besides, the TGI in the assay with CAKI-1 renal came out at 48.4 µM; with UACC-62 melanoma, 10.2 µM.
Turning to `CC(C)(C)NCC(O)COc1c(Br)c(Br)c(Br)c2c1OC(C)(C)C2` (configuration not stated), the GI50 in the assay with U251 CNS was 1.92 µM; in the assay with OVCAR-3 ovarian, 1.54 µM; with TK-10 renal it was 2.04 µM; in the assay on ACHN renal it was 1.9 µM; in the assay on SR leukemia, 1.66 µM; in the assay on MCF7 breast, 1.76 µM. The GI50 was 1.71 µM with CAKI-1 renal and 1.88 µM in the assay on UACC-62 melanoma. The TGI in the assay on U251 CNS was found to be 3.41 µM; with OVCAR-3 ovarian, 3.11 µM; in the assay on TK-10 renal, 3.52 µM; in the assay on ACHN renal, 3.35 µM; with SR leukemia, 3.29 µM; in the assay on MCF7 breast, 3.24 µM. Besides, the TGI with CAKI-1 renal was 3.22 µM; with UACC-62 melanoma it was 3.32 µM.
For the compound `CCCC1(CN2c3ccccc3Sc3ccc(Cl)cc32)CCN(CC)C1` (configuration not stated), the GI50 in the assay with U251 CNS was 1.66 µM; with OVCAR-3 ovarian it was 1.61 µM; in the assay with TK-10 renal, 1.7 µM; in the assay on ACHN renal, 1.76 µM; with SR leukemia, 3.17 µM; with MCF7 breast it was 1.86 µM. Besides, the GI50 in the assay with CAKI-1 renal was 1.7 µM; in the assay on UACC-62 melanoma, 1.92 µM. For the same compound, the TGI in the assay on U251 CNS is 3.16 µM; in the assay with OVCAR-3 ovarian, 3.09 µM; in the assay on TK-10 renal, 3.32 µM; with ACHN renal, 3.31 µM; with SR leukemia, over 100 µM; with MCF7 breast it was 3.5 µM. For the same compound, the TGI in the assay with CAKI-1 renal is 3.2 µM; in the assay with UACC-62 melanoma, 3.6 µM.
Consider `CCCCCCCCCc1ccc(OCCOCCOCCOCCOCCOCCOCCOCCOCCO)cc1`, for which the GI50 with U251 CNS was 0.458 µM; with OVCAR-3 ovarian, 0.428 µM; with TK-10 renal, 0.745 µM; in the assay with ACHN renal, 1.19 µM; in the assay with SR leukemia, 0.437 µM; in the assay with MCF7 breast it was 0.328 µM. For the same compound, the values for the GI50 with CAKI-1 renal and in the assay on UACC-62 melanoma were 0.478 µM and 0.379 µM, respectively. The TGI in the assay on U251 CNS was determined as 1.25 µM; in the assay on OVCAR-3 ovarian it was 2.29 µM; in the assay on TK-10 renal it was 1.93 µM; with ACHN renal it was 5.7 µM; in the assay with SR leukemia, 1.91 µM; with MCF7 breast it was 1.96 µM. In addition, the TGI in the assay with CAKI-1 renal turned out to be 5.75 µM; in the assay with UACC-62 melanoma, 1.25 µM.
As to `C=C1C(=O)O[C@H]2[C@H]1CC/C(COC(=O)N[C@H]1C[C@H](O[C@H]3C[C@](O)(C(=O)CO)Cc4c(O)c5c(c(O)c43)C(=O)c3c(OC)cccc3C5=O)O[C@@H](C)[C@H]1O)=C\CC[C@@]1(C)O[C@@H]21`, the GI50 with U251 CNS is 4.87 µM; with OVCAR-3 ovarian, 2.2 µM; in the assay on TK-10 renal, 9 µM; in the assay on ACHN renal, 41.3 µM; in the assay on SR leukemia, 1.02 µM; with MCF7 breast it was 1.86 µM. Moreover, the GI50 in the assay on CAKI-1 renal was 7.76 µM; in the assay on UACC-62 melanoma, 1.69 µM. In addition, the TGI with U251 CNS is 11.2 µM; with OVCAR-3 ovarian, 7.8 µM; with TK-10 renal it was over 50 µM; in the assay on ACHN renal it was over 50 µM; in the assay with SR leukemia, 7.12 µM; in the assay on MCF7 breast it was 9.86 µM. Besides, the TGI with CAKI-1 renal was over 50 µM; in the assay on UACC-62 melanoma, 7.02 µM.
`Nc1nc(N)c2cc(Sc3ccc4ccccc4c3)ccc2n1`: the TGI worked out at 3.38 µM in the assay with U251 CNS; 8.63 µM with OVCAR-3 ovarian; 6.33 µM in the assay on TK-10 renal; 5.15 µM in the assay on ACHN renal; 5 µM in the assay on SR leukemia; 2.86 µM in the assay on MCF7 breast. In addition, the TGI in the assay on CAKI-1 renal is 15.7 µM; in the assay on UACC-62 melanoma, 6.09 µM. Also, in the assay on SR leukemia, the GI50 is 0.805 µM.
Take `O=[N+]([O-])c1cc([As](Br)c2ccc(O)c([N+](=O)[O-])c2)ccc1O`: the TGI in the assay with U251 CNS is 4.47 µM; with OVCAR-3 ovarian it was 3.53 µM; with TK-10 renal, 3.14 µM; in the assay on ACHN renal, 3.77 µM; with SR leukemia, 0.566 µM; in the assay on MCF7 breast it was over 20.8 µM. Moreover, the TGI in the assay on CAKI-1 renal worked out at 3.42 µM; with UACC-62 melanoma it was 3 µM.
As to `c1ccc(-c2nc3n(c2-c2ccc4c(c2)OCO4)CCC3)nc1`, the GI50 in the assay on U251 CNS was 6.96 µM; with OVCAR-3 ovarian, 7.69 µM; in the assay with TK-10 renal, 1.41 µM; with ACHN renal, 0.993 µM; in the assay with SR leukemia it was 9.49 µM; in the assay with MCF7 breast it was 7.89 µM. The results for the GI50 in the assay with CAKI-1 renal and in the assay with UACC-62 melanoma were 0.62 µM and 5.31 µM, respectively. Also, the TGI with U251 CNS is over 25 µM; with OVCAR-3 ovarian it was over 22.6 µM; with TK-10 renal, over 23.6 µM; in the assay on ACHN renal, over 25 µM; in the assay with SR leukemia it was over 25 µM; in the assay with MCF7 breast it was over 21.3 µM. Further, the TGI in the assay with CAKI-1 renal is over 25 µM; in the assay with UACC-62 melanoma, 16.2 µM.
